Reference: publication PMC3767324, “Synthesis, Characterization, and BSA Binding Studies of Some New Benzamides Related to Schiff Base” (ISRN Organic Chemistry, 2013)
Values after ≈ are worked out from the molar mass of the structure shown.

Columns and labels:
[1] = superoxide radical scavenging assay (NBT, xanthine-xanthine oxidase system); type: biochemical; settings: NBT reduction, pH 7.8, 560 nm, three replicates
Experimental: Superoxide radical scavenging activity was measured as described by Kovala-Demertzi et al., (2004). The assay is based on the reduction of nitroblue tetrazolium (NBT) by superoxide ions generated by the xanthine-xanthine oxidase system (X–XO). The reaction system contained 0.2 mM xanthine and 0.6 mM NBT in 0.1 M phosphate buffer, pH 7.8. The tested compounds were dissolved in methanol. The reaction was started by addition of XO (0.07 U mL^−1), an activity which allowed to yield the absorbance change between 0.03 and 0.04 per minute, at 560 nm. The extent of NBT reduction was followed spectrophotometrically, by measuring the increase of the absorbance at 560 nm. All the experiments were replicated three times. The IC50 of each compound was defined as the concentration which inhibited 50% of the NBT reduction by O2 ^•− produced in the X–XO system.
Superoxide anion radical is normally initially formed, and its effects can be magnified because it produces other kinds of free radicals and oxidizing agents. The enzymatic superoxide anion radical was generated by the xanthine/xanthine oxidase reaction system. The production of superoxide was estimated by the nitroblue tetrazolium method. […] Differently, in the m-position, methoxy and hydroxyl groups act as an electron-withdrawing properties, ([…]), which are possible for providing a destabilizing effect.

[2] = biological target: T1, bovine serum albumin (BSA) (Bos taurus, UniProt P02769); experiment: energy transfer from BSA to compound (Forster theory); type: binding; settings: for J (spectral overlap): BSA emission / compound UV absorption; for R 0 (critical energy transfer distance): K^2 = 2/3, N = 1.311, Φ = 0.118
T1 construct: Bovine serum albumin (BSA), one of the major components in plasma protein; purchased Sigma Aldrich Bangalore
T1 sequence (P02769 25-607): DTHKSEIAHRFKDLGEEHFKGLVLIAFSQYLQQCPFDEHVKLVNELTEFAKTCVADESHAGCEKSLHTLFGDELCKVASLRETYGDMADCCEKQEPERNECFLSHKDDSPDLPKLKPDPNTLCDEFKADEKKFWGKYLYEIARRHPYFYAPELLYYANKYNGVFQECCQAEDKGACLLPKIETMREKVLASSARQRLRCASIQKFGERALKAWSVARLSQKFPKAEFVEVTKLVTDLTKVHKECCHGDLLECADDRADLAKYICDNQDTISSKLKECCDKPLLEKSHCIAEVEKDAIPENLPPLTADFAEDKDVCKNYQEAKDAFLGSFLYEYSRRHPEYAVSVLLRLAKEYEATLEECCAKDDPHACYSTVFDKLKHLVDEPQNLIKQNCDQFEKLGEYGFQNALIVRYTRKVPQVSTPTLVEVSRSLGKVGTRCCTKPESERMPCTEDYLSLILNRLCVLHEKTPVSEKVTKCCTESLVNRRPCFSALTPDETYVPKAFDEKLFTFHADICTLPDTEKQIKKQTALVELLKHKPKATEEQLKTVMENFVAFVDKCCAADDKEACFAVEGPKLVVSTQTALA
Text: The binding distance (r) between a protein residue (donor) and a bound drug molecule (acceptor) can be calculated from Foster's nonradiative energy transfer theory. The efficiency of energy transfer E and the distance between the acceptor and donor r can be defined as the following equation [36]: (4) E=1−(F/F0)=R06/R06+r^6, where r is the distance between the acceptor and donor; F and F 0 are the fluorescence intensities of BSA in the presence of and in the absence of quencher, respectively; R 0 is the critical energy transfer distance when the transfer efficiency is 50%. It is given by the following equation: (5) R06=8.8×10^−25K^2N^−4ΦJ.
K ^2 is a factor describing the spatial orientation factor related to the geometry of the donor and acceptor of dipoles; N is the refractive index of medium; Φ is the fluorescence quantum yield of the donor in the absence of acceptor; J is the effect of spectra overlap between the fluorescence emission spectrum of the donor and the UV-vis absorption spectrum of the acceptor, and J can be calculated by (6): (6) J=f(λ)ε(λ)λ^4Δλ/ΣF(λ)Δλ, where F(λ) is the corrected fluorescence intensity of the donor in the wavelength range from λ to λ + Δλ and ε(λ) is the molar absorption coefficient of the acceptor at wavelength λ. In the present case, K ^2 = 2/3, N = 1.311, and Φ = 0.118 for BSA molecules, respectively.

[3] = tested on: Bacillus subtilis (NCIM 2999); experiment: minimum inhibitory concentration by dilution method; type: cell-based; settings: Bacillus subtilis, NCIM2999
[4] = tested on: Staphylococcus aureus (NCIM 5021); experiment: as above; type: cell-based
[5] = Staphylococcus aureus, NCIM5021

Row | SMILES | melting point | IC50 Superoxide [1] | E (efficiency of energy transfer) [2] | r (binding distance between donor BSA and acceptor) [2] | J (spectral overlap) [2] | R 0 (critical energy transfer distance) [2] | MIC [3] | MIC [4, 5] | MIC ([4]; S. aureus, dilution method, average of three replicates)
1 | CC(=O)N(C(=O)c1ccc(O)cc1)c1ccc(N=Cc2cc3ccccc3o2)cc1 [Compound 5j, N-acetyl-N-(4-((benzofuran-2-ylmethylene)amino)phenyl)-4-hydroxybenzamide] | 213 °C | 11.6 ± 0.04 µg/mL (≈ 29.1 µM) | 0.14 | 4.09 nm | 4.26 × 10^−14 cm^3 L mol^−1 | 3.02 nm | 35 µg/mL (≈ 87.8 µM) | 35 µg/mL (≈ 87.8 µM) | 
2 | CC(=O)N(C(=O)c1cc(F)cc(F)c1)c1ccc(N=Cc2cc3ccccc3o2)cc1 [Compound 5h, N-acetyl-N-(4-((benzofuran-2-ylmethylene)amino)phenyl)-3,5-difluorobenzamide] | 187 °C | 96.1 ± 0.31 µg/mL (≈ 230 µM) | 0.15 | 2.93 nm | 4.91 × 10^−14 cm^3 L mol^−1 | 2.16 nm | 12.4 µg/mL (≈ 29.6 µM) | 12.4 µg/mL (≈ 29.6 µM) | 
3 | CC(=O)N(C(=O)c1cc(F)c(F)c(F)c1)c1ccc(N=Cc2cc3ccccc3o2)cc1 [Compound 5g, N-acetyl-N-(4-(benzofuran-2-ylmethyleneamino)phenyl)-3,4,5-trifluorobenzamide] | 190 °C | 123 ± 0.44 µg/mL (≈ 282 µM) | 0.31 | 3.07 nm | 2.37 × 10^−14 cm^3 L mol^−1 | 2.86 nm | 10 µg/mL (≈ 22.9 µM) | 9.8 µg/mL (≈ 22.5 µM) | 9.8 µg/mL (≈ 22.5 µM)
4 | CC(=O)N(C(=O)c1ccccc1)c1ccc(N=Cc2cc3ccccc3o2)cc1 [Compound 5c, N-acetyl-N -(4-((benzofuran-2-ylmethylene)amino)phenyl)benzamide] | 192 °C | 60.9 ± 0.28 µg/mL (≈ 159 µM) | 0.14 | 4.11 nm | 3.05 × 10^−14 cm^3 L mol^−1 | 3.04 nm | 35 µg/mL (≈ 91.5 µM) | 35 µg/mL (≈ 91.5 µM) | 
5 | CC(=O)N(C(=O)c1cc(F)ccc1F)c1ccc(N=Cc2cc3ccccc3o2)cc1 [Compound 5a, N-acetyl-N-(4-((benzofuran-2-ylmethylene)amino)phenyl)-2,5-difluorobenzamide] | 197 °C | 91.3 ± 0.26 µg/mL (≈ 218 µM) | 0.11 | 3.77 nm | 1.05 × 10^−14 cm^3 L mol^−1 | 2.51 nm | 12 µg/mL (≈ 28.7 µM) | 12 µg/mL (≈ 28.7 µM) | 
6 | COc1ccc(C(=O)N(C(C)=O)c2ccc(N=Cc3cc4ccccc4o3)cc2)cc1 [Compound 5i, N-acetyl-N-(4-(benzofuran-2-ylmethyleneamino)phenyl)-4-methoxybenzamide] | 205 °C | 14.3 ± 0.23 µg/mL (≈ 34.7 µM) | 0.33 | 3.17 nm | 2.79 × 10^−14 cm^3 L mol^−1 | 2.83 nm | 50 µg/mL (≈ 121 µM) | 40 µg/mL (≈ 97 µM) | 
